US4675428A, “Sulfonic acid ester derivatives useful as antilipemic agents” (Taiho Pharmaceutical Company, Limited, priority 1982, dated 1987)

Legend:
[1] = Heat-stability on storage at 40° C. (HPLC content of undecomposed compound); format: physicochemical; conditions: for remaining at 288 h / remaining at 360 h: solid storage; for remaining at 288 h: 12th day; for remaining at 360 h: 15th day; for Content (%) Start: start (initial content)
Procedure: The following compounds (200 mg each) were placed in transparent sample bottles, and left to stand at a constant temperature of 40° C. for 15 days. Thereafter, they were checked for the heat-stability by determining the change of content of the compounds which remained not decomposed as of the 12th and 15th day. The content was measured by high performance liquid chromatography using a 60:40 mixture of acetonitrile and water as an eluent, and the percentages of the content of the undecomposed compound were calculated based on the initial content.

[2] = biological target: esterase solution prepared from a purified microsome fraction of the liver of a rat; assay: Esterase inhibiting activity (hydrolysis of methyl butyrate); format: biochemical; conditions: pH 8.0, 37° C., 60 min
Procedure: 1. Esterase inhibiting activity
A 10 micromole quantity of methyl butyrate in a 50% ethanol solution is added as a substrate to a specified amount of buffer solution containing 0.1 mole of trishydrochloric acid (pH 8.0). To the mixture is further added a 50% ethanol solution of the compound of the invention, immediately followed by addition of an esterase solution prepared from a purified microsome fraction of the liver of a rat (adjusted to hydrolyze 9 micromoles of methyl butyrate at 37° C. in one hour) as an enzyme solution. The mixture is reacted at 37° C. for 60 minutes.
After the reaction, alkaline hydroxylamine is added to the mixture to form a hydroxamic acid derivative of methyl butyrate, and a ferric salt is added to the derivative. The resulting red color is colorimetrically determined (at a wavelength of 540 nm) to determine the amount of remaining methyl butyrate. The esterase inhibiting ratios of the present compound at (at least three) different concentrations are plotted as ordinate, and the logarithms of the concentrations as abscissa to obtain a line, which gives the 50% inhibition concentration (IC50).

plasma triglycerides = assay: Antilipemic effect (plasma triglycerides after oral olive oil); format: in vivo, male Wistar rats; conditions: Wistar rats, oral in olive oil (100 mg in 5 ml, 5 ml/kg), plasma 2 h after dosing
Procedure: Seven-week-old male Wistar rats weighing 200 to 220 g are used, 5 rats in each group.
The compound of the invention (100 mg) is dissolved in 5 ml of olive oil. The olive oil containing the compound is orally given to the rat with a probe at a dose of 5 ml/kg. Two hours thereafter, 6 ml of whole blood is withdrawn from the descending aorta of the rat under ether anesthesia with a syringe containing heparin. The blood is centrifuged at 5° C. and 3000 r.p.m. to obtain the plasma.
The plasma collected is used for determining the triglycerides content, using a triglycerides measuring kit (trade mark "Triglycerides-B Test Wako," product of Wako Junyaku Co., Ltd., Japan). Olive oil containing no compound is similarly given to a control group, while no treatment is conducted for a normal group. The triglycerides content in the plasma is also determined for these groups in the same manner as is the case with the test groups.
The percent hyperlipidemia inhibition achieved by the present compound is given by
Percent inhibitaion=(A-C/A-B)×100
in which A is the triglycerides content of the control group, B is the triglycerides content of the normal group, and C is the triglycerides content of the group to which the present compound is given.

chymotripsin = chymotripsin (Bos taurus, UniProt P00766); assay: Chymotripsin inhibiting activity (ATEE hydrolysis); format: biochemical; conditions: 1 × 10^-4 mole; pH 8.0, 37° C., ATEE substrate
Procedure: 2. Chymotripsin inhibiting activity
An enzyme solution (0.1 unit of chymotripsin) is added to a specified quantity of buffer solution containing 0.1 mole of trishydrochloric acid (pH 8.0). To the mixture is further added a 50% ethanol solution of the compound of the invention, and the resulting mixture is reacted at 37° C. for 20 minutes.
On completion of the reaction, 10 micromoles of N-acetyl-L-thyrosine (ATEE) serving as a substrate is added to the mixture, and the resulting mixture is reacted at 37° C. for 30 minutes. After the completion of the reaction, the amount of remaining ATEE is determined by the same hydroxamic acid method as used in the method of determining the esterase inhibiting activity. The percent chymotripsin inhibition is given by
Percent inhibition=(A-B/A)×100
wherein A is the amount of hydrolyzed esters in the reaction system not containing the compound of the invention, and B is the amount of hydrolyzed esters in the reaction system containing the present compound.

## Cc1ccc(S(=O)(=O)OCC(=O)C2(C)CCC(C(C)C)CC2)cc1 (stereo not shown) [Compound T-8]
[1]
  remaining at 288 h: 100%
  remaining at 360 h: 100%
  Content (%) Start: 100%

## O=C(COS(=O)(=O)c1ccccc1)C1CCC2(CCCCC2)CC1 [Compound 24]
[2]
  IC50: 5.4 nM
Plasma triglycerides
  Antilipemic TG inhibition (%): 93.5%
chymotripsin
  Chymotripsin inhibition (%): 61%

## CCOc1ccc(S(=O)(=O)OCC(=O)C2CCCCC2)cc1 [Compound C-6]
[1]
  remaining at 288 h: 80%
  remaining at 360 h: 14%
  Content (%) Start: 100%

## CC1(C)CCC(C(=O)COS(=O)(=O)c2ccccc2)CC1 [Compound 16, 1-(benzenesulfonyloxy)-2-(4,4-dimethylcyclohexyl)-2-ethanone]
[2]
  IC50: 5.8 nM
Plasma triglycerides
  Antilipemic TG inhibition (%): 77.5%
chymotripsin
  Chymotripsin inhibition (%): 71%

## CC(C)[C@H]1CC[C@](C)(C(=O)COS(=O)(=O)c2ccccc2)CC1 [Compound T-7]
[1]
  remaining at 288 h: 100%
  remaining at 360 h: 100%
  Content (%) Start: 100%

## Cc1cc(C)c(S(=O)(=O)OCC(=O)C2CCC(C(C)C)CC2)c(C)c1 (stereo not shown) [Compound C-3]
[1]
  remaining at 288 h: 95%
  remaining at 360 h: 40%
  Content (%) Start: 100%

## COc1ccc(S(=O)(=O)OCC(=O)C2CCC(C)(C)CC2)cc1 [Compound 18]
[2]
  IC50: 2500 nM

## CCOc1ccc(S(=O)(=O)OCC(=O)C2CCC(CC)CC2)cc1 (stereo not shown) [Compound C-4]
[1]
  remaining at 288 h: 91%
  remaining at 360 h: 15%
  Content (%) Start: 100%

## Cc1cc(C)c(S(=O)(=O)OCC(=O)C2(C)CCC(C(C)C)CC2)c(C)c1 (stereo not shown) [Compound T-6]
[1]
  remaining at 288 h: 100%
  remaining at 360 h: 100%
  Content (%) Start: 100%

## Cc1ccc(S(=O)(=O)OCC(=O)C2(C)CCC(C(C)C)CC2)cc1 (stereo not shown) [Compound 8]
[2]
  IC50: 560 nM
chymotripsin
  Chymotripsin inhibition (%): 35%

## CC(C)[C@H]1CC[C@](C)(C(=O)COS(=O)(=O)c2ccccc2)CC1 [Compound 7]
[2]
  IC50: 16 nM
Plasma triglycerides
  Antilipemic TG inhibition (%): 72.0%
chymotripsin
  Chymotripsin inhibition (%): 26%

## O=C(COS(=O)(=O)c1ccccc1)C1CCC2(CCCC2)CC1 [Compound 22]
[2]
  IC50: 22 nM
Plasma triglycerides
  Antilipemic TG inhibition (%): 84.2%
chymotripsin
  Chymotripsin inhibition (%): 41%

## COc1ccc(S(=O)(=O)OCC(=O)C2(C)CCC(CC(C)C)CC2)cc1 (stereo not shown) [Compound T-13]
[1]
  remaining at 288 h: 100%
  remaining at 360 h: 100%
  Content (%) Start: 100%

## O=C(COS(=O)(=O)c1ccccc1)C1CCCCC1 [Compound C-5]
[1]
  remaining at 288 h: 85%
  remaining at 360 h: 15%
  Content (%) Start: 100%

## CC(C)[C@H]1CC[C@@](C)(C(=O)COS(=O)(=O)c2ccccc2)CC1 [Compound 5]
[2]
  IC50: 33000 nM
Plasma triglycerides
  Antilipemic TG inhibition (%): 49.0%
chymotripsin
  Chymotripsin inhibition (%): 14%

## CC[C@H]1CC[C@](CC)(C(=O)COS(=O)(=O)c2ccccc2)CC1 [Compound 3]
[2]
  IC50: 340 nM
Plasma triglycerides
  Antilipemic TG inhibition (%): 47.1%
chymotripsin
  Chymotripsin inhibition (%): 25%

## Cc1ccc(S(=O)(=O)OCC(=O)[C@H]2CC[C@H](C(C)(C)C)CC2)cc1 [Compound C-2]
[1]
  remaining at 288 h: 93%
  remaining at 360 h: 16%
  Content (%) Start: 100%

## CCCC1(C)CCC(C(=O)COS(=O)(=O)c2ccccc2)CC1 (stereo not shown) [Compound 19]
[2]
  IC50: 4.2 nM
Plasma triglycerides
  Antilipemic TG inhibition (%): 95.4%
chymotripsin
  Chymotripsin inhibition (%): 34%

## CC[C@H]1CC[C@@](CC)(C(=O)COS(=O)(=O)c2ccccc2)CC1 [Compound 1]
[2]
  IC50: 35000 nM
chymotripsin
  Chymotripsin inhibition (%): 12%

## Cc1ccc(S(=O)(=O)OCC(=O)C2CCC3(CCCC3)CC2)cc1 [Compound 23]
[2]
  IC50: 3000 nM

## CC(C)C[C@H]1CC[C@](C)(C(=O)COS(=O)(=O)c2ccccc2)CC1 [Compound 11]
[2]
  IC50: 2200 nM
Plasma triglycerides
  Antilipemic TG inhibition (%): 70.5%
chymotripsin
  Chymotripsin inhibition (%): 15%

## Cc1cc(C)c(S(=O)(=O)OCC(=O)C2CCC(C)(C)CC2)c(C)c1 [Compound 17]
[2]
  IC50: 2 nM

## O=C(CCC1CCCCC1)COS(=O)(=O)c1ccccc1 [Compound C-8]
[1]
  remaining at 288 h: 72%
  remaining at 360 h: 19%
  Content (%) Start: 100%

## Cc1cc(C)c(S(=O)(=O)OCC(=O)C2CCCCC2)c(C)c1 [Compound C-7]
[1]
  remaining at 288 h: 95%
  remaining at 360 h: 20%
  Content (%) Start: 100%

## CC(C)[C@H]1CC[C@H](C(=O)COS(=O)(=O)c2ccccc2)CC1 [Compound C-1]
[1]
  remaining at 288 h: 92%
  remaining at 360 h: 14%
  Content (%) Start: 100%
